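Test compounds were applied to cells in 96-well plates for 48 hours at 5 doses. Here, GI50 denotes the concentration required for 50% inhibition of growth.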 Active and inactive are the calls of the source. No stated cut-off is given here; in the data, active = GI50 up to about 1.1 µM and inactive = higher.
Experiments:
Assay in all cases: NCI-60 cell line screen, 48 h
IGROV-1 = system: IGROV-1
XF498 = system: XF498
SK-MEL-5 = system: SK-MEL-5
SNB-19 = system: SNB-19
Malme-3M = system: Malme-3M
SF-268 = system: SF-268
LOX IMVI = system: LOX IMVI
LXFL 529 = system: LXFL 529
RXF 631 = system: RXF 631
HOP-18 = system: HOP-18
TK-10 = system: TK-10
HOP-62 = system: HOP-62
CCRF-CEM = system: CCRF-CEM
NCI-H23 = system: NCI-H23
KM-20L2 = system: KM-20L2
DMS-273 = system: DMS-273
M14 = system: M14
SF-295 = system: SF-295
CAKI-1 = system: CAKI-1
NCI-H460 = system: NCI-H460
SF-539 = system: SF-539
NCI-H226 = system: NCI-H226
KM12 = system: KM12
A498 = system: A498
SN12C = system: SN12C
SK-MEL-28 = system: SK-MEL-28
SNB-75 = system: SNB-75
SK-MEL-2 = system: SK-MEL-2
UACC-257 = system: UACC-257
DMS-114 = system: DMS-114
DLD-1 = system: DLD-1
A549 = system: A549
NCI-H522 = system: NCI-H522
HT-29 = system: HT-29
OVCAR-3 = system: OVCAR-3
EKVX = system: EKVX
K562 = system: K562
ACHN = system: ACHN
SK-OV-3 = system: SK-OV-3
786-0 = system: 786-0
SW-620 = system: SW-620
HL-60 = system: HL-60
UACC-62 = system: UACC-62
RPMI-8226 = system: RPMI-8226
HCT-15 = system: HCT-15
HCT-116 = system: HCT-116
OVCAR-8 = system: OVCAR-8
HCC 2998 = system: HCC 2998
RXF 393 = system: RXF 393
SNB-78 = system: SNB-78
UO-31 = system: UO-31
OVCAR-5 = system: OVCAR-5
HOP-92 = system: HOP-92
U-251 = system: U-251
OVCAR-4 = system: OVCAR-4
COLO 205 = system: COLO 205

COc1ccccc1CC(C)N (stereo unspecified)
GI50 (IGROV-1): > 100 µM (inactive)
GI50 (XF498): > 100 µM (inactive)
GI50 (SK-MEL-5): > 100 µM (inactive)
GI50 (SNB-19): > 100 µM (inactive)
GI50 (Malme-3M): > 100 µM (inactive)
GI50 (SF-268): > 100 µM (inactive)
GI50 (LOX IMVI): > 100 µM (inactive)
GI50 (LXFL 529): > 100 µM (inactive)
GI50 (RXF 631): > 100 µM (inactive)
GI50 (HOP-18): > 100 µM (inactive)
GI50 (TK-10): > 100 µM (inactive)
GI50 (HOP-62): > 100 µM (inactive)
GI50 (CCRF-CEM): > 100 µM (inactive)
GI50 (NCI-H23): > 100 µM (inactive)
GI50 (KM-20L2): > 100 µM (inactive)
GI50 (DMS-273): > 100 µM (inactive)
GI50 (M14): > 100 µM (inactive)
GI50 (SF-295): > 100 µM (inactive)
GI50 (CAKI-1): > 100 µM (inactive)
GI50 (NCI-H460): > 100 µM (inactive)
GI50 (SF-539): > 100 µM (inactive)
GI50 (NCI-H226): > 100 µM (inactive)
GI50 (KM12): > 100 µM (inactive)
GI50 (A498): > 100 µM (inactive)
GI50 (SN12C): > 100 µM (inactive)
GI50 (SK-MEL-28): > 100 µM (inactive)
GI50 (SNB-75): > 100 µM (inactive)
GI50 (SK-MEL-2): > 100 µM (inactive)
GI50 (UACC-257): > 100 µM (inactive)
GI50 (DMS-114): > 100 µM (inactive)
GI50 (DLD-1): > 100 µM (inactive)
GI50 (A549): > 100 µM (inactive)
GI50 (NCI-H522): > 100 µM (inactive)
GI50 (HT-29): > 100 µM (inactive)
GI50 (OVCAR-3): > 100 µM (inactive)
GI50 (EKVX): > 100 µM (inactive)
GI50 (K562): > 100 µM (inactive)
GI50 (ACHN): > 100 µM (inactive)
GI50 (SK-OV-3): > 100 µM (inactive)
GI50 (786-0): > 100 µM (inactive)
GI50 (SW-620): > 100 µM (inactive)
GI50 (HL-60): > 100 µM (inactive)
GI50 (UACC-62): > 100 µM (inactive)
GI50 (RPMI-8226): > 100 µM (inactive)
GI50 (HCT-15): > 100 µM
GI50 (HCT-116): > 100 µM (inactive)
GI50 (OVCAR-8): > 100 µM (inactive)
GI50 (HCC 2998): > 100 µM (inactive)
GI50 (RXF 393): > 100 µM (inactive)
GI50 (SNB-78): > 100 µM (inactive)
GI50 (UO-31): > 100 µM (inactive)
GI50 (OVCAR-5): > 100 µM (inactive)
GI50 (HOP-92): > 100 µM (inactive)
GI50 (U-251): > 100 µM (inactive)
GI50 (OVCAR-4): > 100 µM (inactive)
GI50 (COLO 205): > 100 µM (inactive)

Source: ChEMBL document CHEMBL1201862, “PubChem BioAssay data set” (2004)
